Experimental data: patent publication US5607937A, “Piperazides of substituted phenylalanine derivatives as thrombin inhibitors” (priority 1993, dated 1997)
Like-named read-outs stand apart in the source and are kept apart here.

Tests used:
plasmin = plasmin (Homo sapiens, UniProt P00747); test: inhibition of plasmin, dissociation constant Ki; conditions: read-out: Ki, Plasmin; Table 1
factor Xa = factor Xa (Bos taurus, UniProt P00743); test: inhibition of factor Xa, dissociation constant Ki; format: biochemical; conditions: Table 1
Description: (§1) The biological activity of the compounds of the present invention was determined in vitro as well as in vivo.

[1] = test system: coagulation in human plasma; test: prothrombin time (PT, Quick value) in human plasma
tPA = tPA (Homo sapiens, UniProt P00750); test: inhibition of tPA, dissociation constant Ki
factor XIIa = target: T1, factor XIIa (Homo sapiens, UniProt P00748); test: inhibition of factor XIIa, dissociation constant Ki; conditions: Table 1
T1 sequence (P00748 373-615 limits assumed): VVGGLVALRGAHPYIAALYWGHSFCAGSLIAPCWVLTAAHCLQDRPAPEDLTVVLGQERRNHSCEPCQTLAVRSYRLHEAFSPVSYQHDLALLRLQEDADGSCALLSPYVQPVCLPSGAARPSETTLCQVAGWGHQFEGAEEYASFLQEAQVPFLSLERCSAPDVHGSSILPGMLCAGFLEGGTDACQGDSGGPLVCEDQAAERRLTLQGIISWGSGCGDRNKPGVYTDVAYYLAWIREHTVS

[2] = test system: coagulation in human plasma; test: activated partial thromboplastin time (aPTT) in human plasma
plasma kallikrein = plasma kallikrein (Homo sapiens, UniProt P03952); test: inhibition of plasma kallikrein, dissociation constant Ki
glandular kallikrein = glandular kallikrein (Sus scrofa, UniProt P00752); test: inhibition of glandular kallikrein, dissociation constant Ki
[3] = test system: coagulation in human plasma; test: thrombin time (TT) in human plasma
thrombin [4] = target: T2, thrombin (Bos taurus, UniProt P00735)
trypsin [5] = target: T3, trypsin (Bos taurus, UniProt P00760); test: inhibition of trypsin, dissociation constant Ki; format: biochemical; set-up: thrombin and the related enzymes trypsin, plasmin, factor Xa, factor XIIa; conditions: Table 1; read-out: Ki, Trypsin
T3 sequence (P00760 24-246): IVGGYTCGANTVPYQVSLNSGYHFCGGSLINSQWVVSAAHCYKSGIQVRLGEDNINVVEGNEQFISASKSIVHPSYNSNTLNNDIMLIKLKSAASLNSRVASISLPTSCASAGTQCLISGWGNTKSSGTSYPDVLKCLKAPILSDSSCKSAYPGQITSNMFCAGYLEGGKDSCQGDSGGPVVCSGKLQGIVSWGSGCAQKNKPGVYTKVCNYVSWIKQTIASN
Description: as §1

trypsin [6] = target: T3, trypsin; conditions: literature; cited from earlier work
[7] = plasma concentration in rats after oral administration; format: in vivo; conditions: rat, oral
Description: (§3) A physiological NaCl solution of the substance to be tested was submitted to high pressure liquid chromatography (HPLC) in order to determine its characteristic substance-specific retention time with the chosen test conditions.
(§4) The substance to be tested was diluted in vitro in rat plasma. This solution was also submitted to HPLC to see whether the characteristic peak of the substance once again appeared at the substance-specific retention time.
(§5) Blood samples were taken at time intervals of 15 minutes, from which plasma samples were prepared by centrifugation; those samples were also submitted to HPLC to see whether the characteristic peak of the substance appeared again at the substance-specific retention time.
(§6) After administration, blood samples were taken from the test animals at time intervals from 2 to maximally 360 minutes and the blood level of the compounds to be tested was determined by HPLC.

thrombin [8] = target: T2, thrombin; test: biochemical
in vivo = conditions: rat
[9] = concentration in rat plasma in the anticoagulant study after rectal application; format: in vivo; conditions: rectal 5 mg/kg; for concentration at 0.5 h / concentration at 1 h / concentration at 2 h / concentration at 3 h: plasma; for concentration at 0.5 h: 30 min; for concentration at 1 h: 60 min; for concentration at 2 h: 120 min; for concentration at 3 h: 180 min; for Concentration in plasma: 0 min
[10] = plasma concentration in rats after rectal administration; format: in vivo; conditions: rat; for concentration at 0.5 h: 30 min; for concentration at 1 h: 60 min; for concentration at 2 h: 120 min; for concentration at 3 h: 180 min; for concentration at 4 h: 240 min
[11] = plasma concentration in rats after intravenous administration; format: in vivo; conditions: rat; for concentration at 0.25 h: 15 min; for concentration at 0.5 h: 30 min; for concentration at 1 h: 60 min; for elimination in words: i.v.
Description: as §3, §4, §5, §6

[12] = test system: coagulation in rat plasma; test: aPTT in rat plasma after rectal application; format: in vivo; conditions: rectal 5 mg/kg
Description: (§2) After rectal administration of the compounds to be tested, the anticoagulant effect was determined in the plasma of experimental animals.

[13] = test system: coagulation in rat plasma; test: thrombin time in rat plasma after rectal application; format: in vivo; conditions: rectal 5 mg/kg
Description: as §2

[14] = read-out: Ki, Plasma kallikr., Table 1
[15] = read-out: Ki, Gland. kallikr., Table 1
[16] = read-out: Ki, Thrombin, Table 1
[17] = read-out: Thrombin inhibition Ki, Table 7
[18] = plasma, intraduodenal 100 mg/kg, 30 min

glandular kallikrein, sequence (P00752 8-246): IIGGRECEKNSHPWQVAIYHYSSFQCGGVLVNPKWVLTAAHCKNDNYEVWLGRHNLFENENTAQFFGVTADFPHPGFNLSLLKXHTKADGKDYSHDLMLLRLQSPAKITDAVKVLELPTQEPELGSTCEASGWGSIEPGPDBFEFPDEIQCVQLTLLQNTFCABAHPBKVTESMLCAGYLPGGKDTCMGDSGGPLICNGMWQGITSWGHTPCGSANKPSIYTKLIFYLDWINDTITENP
plasma kallikrein, sequence (P03952 391-638 limits assumed, species assumed): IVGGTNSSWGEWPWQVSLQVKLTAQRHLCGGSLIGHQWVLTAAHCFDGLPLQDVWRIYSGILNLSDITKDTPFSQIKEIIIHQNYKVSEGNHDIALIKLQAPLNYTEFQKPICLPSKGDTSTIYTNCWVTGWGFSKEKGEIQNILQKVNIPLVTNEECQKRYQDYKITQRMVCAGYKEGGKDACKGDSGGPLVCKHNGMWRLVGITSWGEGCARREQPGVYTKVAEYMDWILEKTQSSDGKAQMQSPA
plasma kallikrein, sequence (P03952 20-390 partner limits assumed, species assumed): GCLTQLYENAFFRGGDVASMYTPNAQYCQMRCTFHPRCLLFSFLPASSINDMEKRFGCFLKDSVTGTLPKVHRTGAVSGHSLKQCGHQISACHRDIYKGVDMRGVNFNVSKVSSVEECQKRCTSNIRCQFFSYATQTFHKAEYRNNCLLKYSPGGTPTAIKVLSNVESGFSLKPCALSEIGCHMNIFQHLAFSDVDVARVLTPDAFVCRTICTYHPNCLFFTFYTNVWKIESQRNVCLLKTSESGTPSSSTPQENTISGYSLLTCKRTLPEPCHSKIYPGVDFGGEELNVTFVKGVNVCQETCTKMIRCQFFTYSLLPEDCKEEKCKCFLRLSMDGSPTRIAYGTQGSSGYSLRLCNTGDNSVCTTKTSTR
factor Xa, sequence (P00743 234-492 limits assumed): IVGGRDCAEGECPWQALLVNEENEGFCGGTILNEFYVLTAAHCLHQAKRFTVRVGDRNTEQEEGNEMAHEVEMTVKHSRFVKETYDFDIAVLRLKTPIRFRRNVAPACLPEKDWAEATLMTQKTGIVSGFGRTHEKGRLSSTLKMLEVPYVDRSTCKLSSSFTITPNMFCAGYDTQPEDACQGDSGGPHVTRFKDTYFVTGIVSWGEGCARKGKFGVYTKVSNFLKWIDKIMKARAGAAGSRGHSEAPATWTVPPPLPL
factor Xa, sequence (P00743 41-180 partner limits assumed): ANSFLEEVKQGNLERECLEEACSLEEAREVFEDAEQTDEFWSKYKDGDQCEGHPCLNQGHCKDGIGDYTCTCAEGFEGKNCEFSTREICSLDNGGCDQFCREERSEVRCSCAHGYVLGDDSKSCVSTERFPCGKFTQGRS
tPA, sequence (P00750 36-562): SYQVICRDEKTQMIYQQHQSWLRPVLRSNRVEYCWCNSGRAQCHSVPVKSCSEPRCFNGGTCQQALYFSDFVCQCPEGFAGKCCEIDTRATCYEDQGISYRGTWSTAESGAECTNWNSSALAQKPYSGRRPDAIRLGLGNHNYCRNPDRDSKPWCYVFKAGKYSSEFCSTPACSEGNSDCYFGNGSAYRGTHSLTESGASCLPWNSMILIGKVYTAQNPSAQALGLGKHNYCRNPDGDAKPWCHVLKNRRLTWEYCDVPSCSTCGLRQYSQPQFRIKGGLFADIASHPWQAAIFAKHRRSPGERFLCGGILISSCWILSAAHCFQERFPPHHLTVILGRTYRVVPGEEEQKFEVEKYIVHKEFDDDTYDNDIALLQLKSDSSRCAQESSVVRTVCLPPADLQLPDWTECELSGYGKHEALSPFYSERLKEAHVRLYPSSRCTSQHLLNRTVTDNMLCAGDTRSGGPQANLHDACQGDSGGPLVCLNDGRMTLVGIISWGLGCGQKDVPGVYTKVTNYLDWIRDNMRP
plasmin, sequence (P00747 581-810 limits assumed): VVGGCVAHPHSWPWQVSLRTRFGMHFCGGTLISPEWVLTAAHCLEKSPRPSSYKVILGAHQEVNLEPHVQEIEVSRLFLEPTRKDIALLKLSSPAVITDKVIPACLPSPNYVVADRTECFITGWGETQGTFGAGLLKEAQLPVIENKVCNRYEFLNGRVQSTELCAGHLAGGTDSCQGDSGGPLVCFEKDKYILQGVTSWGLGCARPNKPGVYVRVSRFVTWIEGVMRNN
plasmin, sequence (P00747 97-580 partner limits assumed): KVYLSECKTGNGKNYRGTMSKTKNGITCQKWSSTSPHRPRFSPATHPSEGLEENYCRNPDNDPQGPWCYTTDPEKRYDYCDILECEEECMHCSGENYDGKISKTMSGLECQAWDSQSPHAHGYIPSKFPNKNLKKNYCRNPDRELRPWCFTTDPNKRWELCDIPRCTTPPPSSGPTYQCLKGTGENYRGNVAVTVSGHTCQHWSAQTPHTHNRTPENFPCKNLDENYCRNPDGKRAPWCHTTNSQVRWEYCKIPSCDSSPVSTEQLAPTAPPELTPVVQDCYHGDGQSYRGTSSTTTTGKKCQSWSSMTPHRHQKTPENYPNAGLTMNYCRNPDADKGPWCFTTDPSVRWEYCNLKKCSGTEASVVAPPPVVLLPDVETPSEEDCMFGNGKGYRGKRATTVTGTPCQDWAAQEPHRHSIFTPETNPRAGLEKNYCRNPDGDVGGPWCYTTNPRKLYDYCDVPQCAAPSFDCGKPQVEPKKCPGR

CC1(C)C2CCC1(CS(=O)(=O)N[C@@H](Cc1cccc(C(=N)N)c1)C(=O)N1CCN(S(C)(=O)=O)CC1)C(=O)C2 (single isomer, unassigned) [Compound 7]
Ki (plasmin): 14 µM
Ki (factor Xa): 1.1 µM
Concentr. to double the Prothrombin time [1]: 1.0 µmol/L
concentration to double the PT [1]: ≤ 1 μmol/1
Ki (tPA; read-out: Ki, tPA, Table 1): 20 µM
Ki (factor XIIa; read-out: Ki, Factor XIIa): 61 µM
Concentr. to double the aPTT [2]: 0.55 µmol/L
concentration to double the aPTT [2]: ≤ 1 μmol/1
Ki (plasma kallikrein; [14]): 25 µM
Ki (glandular kallikrein; [15]): > 1000 µM
Concentr. to double the Thrombin time [3]: 0.075 µmol/L
concentration to double the TT [3]: less than 10^-7 mol/1
Ki (thrombin [4]; [16]): 0.012 µM
Ki (thrombin [4]; [17]): 0.012 µM
Ki (trypsin [5]): 0.22 µM

CC1(C)C2CCC1(CS(=O)(=O)N[C@@H](Cc1cccc(C(=N)N)c1)C(=O)N1CCN(S(C)(=O)=O)CC1)C(=O)C2 (single isomer, unassigned) [Compound 8]
Ki (plasmin): 29 µM
Ki (factor Xa): 6.7 µM
Concentr. to double the Prothrombin time [1]: 2.0 µmol/L
Ki (tPA; read-out: Ki, tPA, Table 1): 82 µM
Ki (factor XIIa; read-out: Ki, Factor XIIa): 70 µM
Concentr. to double the aPTT [2]: 1.2 µmol/L
Ki (plasma kallikrein; [14]): 130 µM
Ki (glandular kallikrein; [15]): > 1000 µM
Concentr. to double the Thrombin time [3]: 0.13 µmol/L
Ki (thrombin [4]; [16]): 0.031 µM
Ki (thrombin [4]; [17]): 0.031 µM
Ki (trypsin [5]): 0.44 µM

CC1CNc2c(cccc2S(=O)(=O)N[C@@H](CCCN=C(N)N)C(=O)N2CC[C@@H](C)C[C@@H]2C(=O)O)C1 (stereo partly drawn) [(2R,4R)-4-methyl-1-[Nα-(3-methyl-1,2,3,5-tetrahydro-8-quinolinesulfonyl)-L-arginine]-2-pipecoline-carboxylic acid]
trypsin-inhibiting activity in words (trypsin [6]): practically no trypsin-inhibiting activity

Cl.Cl.N=C(N)c1cccc(C[C@H](NS(=O)(=O)c2ccc3ccccc3c2)C(=O)N2CCN(CCO)CC2)c1 [Compound 3, Nα-(2-naphthylsulfonyl)-3-amidino-(L)-phenylalanine-4-(2-hydroxyethyl) -piperazide dihydrochloride]
resorption in words [7]: only slightly resorbed
Concentr. to double the Prothrombin time [1]: 1.3 µmol/L
Ki (tPA): 190 µM
Ki (thrombin [8]): 0.036 µM
concentration at 0.5 h (in vivo; [18]): 3820 ng/mL
Concentration in plasma (in vivo; in vivo, other, 100 mg/kg, 120 min): 361 ng/mL
Concentration in plasma (in vivo; intraduodenal 100 mg/kg, 30 min, dihydrochloride, 100 mg/kg): 2262 ng/mL
Concentration in plasma (in vivo; intraduodenal 100 mg/kg, 60 min, dihydrochloride, 100 mg/kg): 2172 ng/mL
Concentration in plasma (in vivo; intraduodenal 100 mg/kg, 60 min, listed as 3*, dihydrochloride, 100 mg/kg): 795 ng/mL
Concentration in plasma (in vivo; intraduodenal 100 mg/kg, 120 min): 1457 ng/mL
Concentration in plasma (in vivo; intraduodenal 100 mg/kg, 180 min, dihydrochloride, 100 mg/kg): 945 ng/mL
Concentration in plasma (in vivo; intraduodenal 100 mg/kg, 180 min, listed as 3*, dihydrochloride, 100 mg/kg): 228 ng/mL
Concentration in plasma (in vivo; intraduodenal 100 mg/kg, 240 min, dihydrochloride, 100 mg/kg): 1277 ng/mL
Concentration in plasma (in vivo; intraduodenal 100 mg/kg, 240 min, listed as 3*, dihydrochloride, 100 mg/kg): 144 ng/mL
Concentration in plasma (in vivo; intraduodenal 100 mg/kg, 300 min, dihydrochloride, 100 mg/kg): 1400 ng/mL
Concentration in plasma (in vivo; intraduodenal 100 mg/kg, 300 min, listed as 3*, dihydrochloride, 100 mg/kg): 276 ng/mL
Ki (factor XIIa; Ki, Factor XIIa): 320 µM
Concentr. to double the aPTT [2]: 0.65 µmol/L
Ki (plasma kallikrein): 25 µM
Ki (glandular kallikrein): > 1000 µM
Concentr. to double the Thrombin time [3]: 0.14 µmol/L
concentration at 0.5 h [9]: 897 ng/mL
concentration at 1 h [9]: 462 ng/mL
concentration at 2 h [9]: 355 ng/mL
concentration at 3 h [9]: 49 ng/mL
Concentration in plasma [9]: 0 ng/mL
concentration at 0.5 h ([10]; plasma, rectal 20 mg/kg): 7260 ng/mL
concentration at 1 h ([10]; plasma, rectal 20 mg/kg): 3800 ng/mL
concentration at 2 h ([10]; plasma, rectal 20 mg/kg): 1740 ng/mL
concentration at 3 h ([10]; plasma, rectal 20 mg/kg): 814 ng/mL
concentration at 4 h ([10]; plasma, rectal 20 mg/kg): 215 ng/mL
concentration at 5 h ([10]; plasma, rectal 20 mg/kg, 300 min): 61 ng/mL
concentration at 6 h ([10]; plasma, rectal 20 mg/kg, 360 min): 34 ng/mL
detectable in plasma after rectal administration ([10]; rectal): ≥ 6 h
concentration at 5 min ([11]; plasma, iv, i.v. 1 mg/kg): 2210 ng/mL
concentration at 0.25 h ([11]; plasma, iv, i.v. 1 mg/kg): 145 ng/mL
concentration at 0.5 h ([11]; plasma, iv, i.v. 1 mg/kg): 313 ng/mL
concentration at 1 h ([11]; plasma, iv, i.v. 1 mg/kg): 112 ng/mL
elimination in words [11]: eliminated at comparable rate
Concentration in plasma ([11]; i.v. 1 mg/kg, 120 min): 0 ng/mL
Concentration in plasma ([11]; i.v. 1 mg/kg, 180 min): 0 ng/mL
Ki (trypsin [5]): 0.6 µM
Clotting time, aPTT ([12]; 0 min): 23.5 s
Clotting time, aPTT ([12]; 30 min): 39.8 s
Clotting time, aPTT ([12]; 60 min): 32.8 s
Clotting time, aPTT ([12]; 120 min): 27.4 s
Clotting time, aPTT ([12]; 180 min): 26.0 s
Clotting time, Thrombin time ([13]; 0 min): 45 s
Clotting time, Thrombin time ([13]; 30 min): 300 s
Clotting time, Thrombin time ([13]; 60 min): 298 s
Clotting time, Thrombin time ([13]; 120 min): 165 s
Clotting time, Thrombin time ([13]; 180 min): 114 s

CN(C)C(=O)N1CCN(C(=O)[C@H](Cc2cccc(C(=N)N)c2)NS(=O)(=O)c2ccc3ccccc3c2)CC1 [Compound 6]
resorption in words [7]: only slightly resorbed
Ki (factor Xa): 15 µM
Concentr. to double the Prothrombin time [1]: 0.65 µmol/L
concentration to double the PT [1]: ≤ 1 μmol/1
Ki (tPA): > 1000 µM
Ki (thrombin [8]): 0.004 µM
concentration at 0.5 h (in vivo; [18]): 20500 ng/mL
concentration at 1 h (in vivo; plasma, intraduodenal 100 mg/kg, 60 min): 6500 ng/mL
concentration at 2 h (in vivo; plasma, intraduodenal 100 mg/kg, 120 min): 3280 ng/mL
concentration at 3 h (in vivo; plasma, intraduodenal 100 mg/kg, 180 min): 2060 ng/mL
concentration at 4 h (in vivo; plasma, intraduodenal 100 mg/kg, 240 min): 1500 ng/mL
concentration at 5 h (in vivo; plasma, intraduodenal 100 mg/kg, 300 min): 1200 ng/mL
concentration at 6 h (in vivo; plasma, intraduodenal 100 mg/kg, 360 min): 1440 ng/mL
Ki (factor XIIa; Ki, Factor XIIa): 51 µM
Concentr. to double the aPTT [2]: 0.3 µmol/L
concentration to double the aPTT [2]: ≤ 1 μmol/1
Ki (plasma kallikrein; Ki, Plasma kallikr., Table 1): 7.3 µM
Ki (glandular kallikrein): > 1000 µM
Concentr. to double the Thrombin time [3]: 0.042 µmol/L
concentration to double the TT [3]: less than 10^-7 mol/1
concentration at 0.5 h [9]: 648 ng/mL
concentration at 1 h [9]: 362 ng/mL
concentration at 2 h [9]: 157 ng/mL
concentration at 3 h [9]: 83 ng/mL
Concentration in plasma [9]: 0 ng/mL
concentration at 0.5 h ([10]; plasma, rectal 20 mg/kg): 1180 ng/mL
concentration at 1 h ([10]; plasma, rectal 20 mg/kg): 449 ng/mL
concentration at 2 h ([10]; plasma, rectal 20 mg/kg): 850 ng/mL
concentration at 3 h ([10]; plasma, rectal 20 mg/kg): 272 ng/mL
concentration at 4 h ([10]; plasma, rectal 20 mg/kg): 46 ng/mL
concentration at 5 min ([11]; plasma, iv, i.v. 1 mg/kg): 823 ng/mL
concentration at 0.25 h ([11]; plasma, iv, i.v. 1 mg/kg): 289 ng/mL
concentration at 0.5 h ([11]; plasma, iv, i.v. 1 mg/kg): 194 ng/mL
concentration at 1 h ([11]; plasma, iv, i.v. 1 mg/kg): 141 ng/mL
concentration at 2 h ([11]; plasma, iv, i.v. 1 mg/kg, 120 min): 86 ng/mL
concentration at 3 h ([11]; plasma, iv, i.v. 1 mg/kg, 180 min): 70 ng/mL
elimination in words [11]: eliminated at comparable rate
Ki (trypsin [5]): 0.097 µM
Clotting time, aPTT ([12]; 0 min): 22.3 s
Clotting time, aPTT ([12]; 30 min): 34.5 s
Clotting time, aPTT ([12]; 60 min): 31.5 s
Clotting time, aPTT ([12]; 120 min): 28.4 s
Clotting time, aPTT ([12]; 180 min): 26 s
Clotting time, Thrombin time ([13]; 0 min): 55.3 s
Clotting time, Thrombin time ([13]; 30 min): > 300 s
Clotting time, Thrombin time ([13]; 60 min): > 300 s
Clotting time, Thrombin time ([13]; 120 min): > 300 s
Clotting time, Thrombin time ([13]; 180 min): 213 s
